Data from patent US6440971B1, “Binuclear complex” (A+ Science Invest AB, priority 1997, dated 2002).

Experiments:
SUDHL 1 = test: growth inhibition of tumour cell lines; details: read-out: half maximum growth inhibitory concentration (IC50), Δ,Δ-enantiomers of (I)-(IV), Δ-enantiomer of (V)
Lung carcinoma HBT182 = test: growth inhibition of tumour cell lines; details: read-out: half maximum growth inhibitory concentration (IC50), Δ,Δ-enantiomers of (I)-(IV), Δ-enantiomer of (V)
LAMA = test: growth inhibition of tumour cell lines; details: read-out: half maximum growth inhibitory concentration (IC50), Δ,Δ-enantiomers of (I)-(IV), Δ-enantiomer of (V)
DNA = test: linear dichroism of complex bound to DNA; type: binding; details: 10 mM and 200 mM aqueous NaCl, [Ru]=5 μM, P/Ru=30; negative signals at 380 and 470 nm
From the text: The properties of the Δ,Δ enantiomer of (I) regarding DNA binding was then studied.
The amplitude of the negative signals 380 and 470 nm indicate bis-intercalation of the complex (Lincoln, P. et al. JACS 118 (1996) 2644).

calf thymus DNA = test: sodium dodecylsulphate-driven dissociation of the DNA complex; type: binding; details: [NaCl]=159 mM
Procedure: While the association reaction is relatively insensitive to the ionic strength of the solution, the dissociation is much faster at physiological salt concentrations, however, the rate constant is still only 0.008 S^−1 at [NaCl]=159 mM.

[Cl-].[Cl-].[Ru+2].c1ccc2nc3c4cccnc4c4ncccc4c3nc2c1.c1cnc2c(c1)ccc1cccnc12.c1cnc2c(c1)ccc1cccnc12 [(V), reference compound]
IC50 (SUDHL 1): 39 µM | IC50 (Lung carcinoma HBT182): 38 µM | IC50 (LAMA): 43 µM

Δ,Δμ-[N,N′-bis(12-cyano-12,13-dihydro-11H-cyclopentadipyrido[b:3,2-h:2′,3′-j]phenazine-12-carbonyl)-1,4-diaminobutane N^4N^5,N^4,N^5′]-tetra(2,2′-bipyridine N^1,N^1′)diruthenium(4+)-tetrachloride [(II)]
IC50 (SUDHL 1): 12 µM | IC50 (Lung carcinoma HBT182): 8 µM | IC50 (LAMA): 9 µM

μ-[N,N′-bi (12-cyano-12,13-dihydro-11H-cyclopentadipyrido[b:3,2-h:7′,3′-j]phenazine-12-carbonyl)-1,2-diaminoethane N^4,N^5,N^4′,N^5′]-tetra(2,2′-bipyridine N^1,N^1′)-diruthenium(4+)-tetrachloride [(IV)]
IC50 (SUDHL 1): 22 µM | IC50 (Lung carcinoma HBT182): 10 µM | IC50 (LAMA): 16 µM

μ-[N,N′-bis(12-cyano-12,3-dihydro-11H-cyclopentadipyrido[b:3,2-h:2′,3′-j]phenazine-12-carbonyl)-1,2-diaminoethane N^4,N^5,N^4′,N^5′]-tetra(1,10-phenanthroline N^1,N^10)-diruthenium(4+)-tetrachloride [(III)]
IC50 (SUDHL 1): 14 µM | IC50 (Lung carcinoma HBT182): 19 µM | IC50 (LAMA): 12 µM

μ-[N,N′-bis(12-cyano-12,13-dihydro-11H-cyclopentadipyrido[b:3,2-h:2′,3′-j]phenazine-12-carbonyl)-1,4-diaminobutane-N^4,N^5,N′^4,N′^5]-tetra (1,10-phenanthroline N^1,N^10) diruthenium(4+) -tetra-chloride [(I)]
DNA binding mode (DNA): bis-intercalation | dissociation rate constant (calf thymus DNA): 0.008 S^−1 | IC50 (SUDHL 1): 14 µM | IC50 (Lung carcinoma HBT182): 9 µM | IC50 (LAMA): 8 µM
